{"source": "patent US20060229438A1", "about": "“Monoclonal antibody derived peptide inhibitors for mycobacterial dna gyrase” (priority 2002, published 2006)", "key": {"[1]": {"target": "DNA gyrase from ciprofloxacin resistant M. smegmatis mc^2155 strain (Mycolicibacterium smegmatis, UniProt A0QNE0+P48354)", "type": "biochemical"}, "[2]": {"tested_on": "DNA gyrase from ofloxacin resistant clinical isolate of M. tuberculosis (ICC-222)"}}, "data": [{"molecule": "O=C(O)c1cn(C2CC2)c2cc(N3CCNCC3)c(F)cc2c1=O", "note": "[ciprofloxacin, reference compound]", "values": [{"measurement": "susceptibility of the enzyme to ciprofloxacin", "setting": "[1]", "result": "showed resistance"}, {"measurement": "IC50", "setting": "[1]; read-out: IC50 (no inhibition up to concentration)", "result": "> 1.21", "unit": "mM"}]}, {"molecule": "scFv:GyrA: engineered single chain antibody fragment of MsGyrA:C3, monovalent 30 kDa polypeptide, Seq. ID #2, encoded by pVNUHMscFv (protein) scFv: AQVKLQQSGAELVRPGASVKLSCKASGYSFTVYYIYWVKQRPGQALEWIGEINPSNGGTNFNEKFKTKATLTVDKSTSTVYMQLSSLTSEDSAVYYCTRWGLRRGFAYWGQGTTVTVSSSGGGSGGGGSGGGGSDIELTQSPKSMSMSVGERVTLSCKASENVGTHVSWYQQRPEESPKLLIYGASNRYTGVPDRFTGSGSATDFTLTISNVQAEDLADYHCGQTYSYPFTFGLGTKLEIKRAAAGAPVPYPDPLEPRAA", "values": [{"measurement": "concentration that completely inhibited DNA gyrase", "setting": "[2]", "result": 10, "unit": "nM"}]}]}
